Test results: publication PMC9785441, “A Broad Spectrum Antiparasitic Activity of Organotin (IV) Derivatives and Its Untargeted Proteomic Profiling Using Leishmania donovani” (Pathogens, 2022)
Like-named read-outs stand apart in the source and are kept apart here.

What was measured:
[1] = system: HEK-293T cells; experiment: HEK293 cytotoxicity assay (resazurin); type: cell-based; conditions: human embryonic kidney cells, 48 h, max 4 µM; read-out: CC50 HEK923
Protocol: HEK-293T cells were cultured in DMEM (Gibco) supplemented with 10% heat inactivated FBS (Corning) and 1% penicillin-streptomycin (Gibco). Cells were maintained in vented T75 cell culture flasks (Thermo Scientific, Cat. 12-565-349) at 37 °C and 5% CO2, and were passaged every 72 h. […] Compounds were diluted with fresh DMEM (49 µL/well). HEK-293 cells were suspended at 4 × 10^5 cells/mL in DMEM and added to each well (50 µL/well) to give 2 × 10^4 cells/well. Assay plates were incubated at 37 °C and 5% CO2 for 48 h, followed by addition of 20 µL of 0.5 mM resazurin (Alfa Aesar, Cat. B21187) in PBS to each well. […] In each assay plate, cell viability was normalized relative to positive and negative controls. Assays were performed in biological and technical duplicates, and dose–response and CC50 data were generated with GraphPad Prism 5 using a sigmoidal four parameter logistic curve.

[2] = system: B10R cells; experiment: Cytotoxicity to B10R host cells (nuclei count in the amastigote assay); type: cell-based; conditions: mouse monocyte host cells, 72 h
Protocol: For the intracellular amastigote stage assay, L. donovani was incubated at a density of 1 × 10^6 parasites/mL for six days at 29 °C before infection to enrich the proportion of metacyclic promastigotes. B10R monocyte cell lines were cultured in RPMI supplemented with 10% FBS and 1%penicillin/streptomycin at 37 °C in 5% CO2. After 72 h, cells were counted with a hemocytometer and mixed with the six-day-old parasites. […] Plates were incubated at 37 °C and 5% CO2 for 72 h. Cultures were then fixed with 4% formaldehyde solution for 30 min and stained with 0.5 µg/mL DAPI (diamidino-2-phenylindole). Plates were then imaged using an ImageXpress Micro XLS automated high content imager (Molecular Devices, San Jose, CA, USA) using a 10× air objective. A custom image analysis module generated in ImageXpress was used to count the nuclei of host and parasite cells. EC50 values were obtained using the GraphPad Prism 9 Software with biological triplicates.

[3] = system: G. lamblia (WB strain) trophozoites; experiment: G. lamblia trophozoite viability assay (CellTiter-Glo); type: cell-based, Giardia lamblia; conditions: 48 h
Protocol: Trophozoites of G. lamblia (WB strain) were maintained in vitro as described in TYI-S-33 medium supplemented with penicillin (100 U/mL) and streptomycin (100 µg/mL). Cells were harvested during the logarithmic phase of the growth for antiparasitic assessment. Test compounds were serially diluted and transferred to a white solid bottomed 96-well tissue culture plate (E&K Scientific, Swedesboro, NJ, USA) followed by addition of 5000 G. lamblia trophozoites for a final volume of 100 µL of TYI-S-33 medium and a final concentration of compounds ranging from 50.0 to 0.39 µM. Metronidazole was used as a positive control and assay plates were incubated for 48 h at 37 °C in the GasPak EZ Anaerobic Gas Generating Pouch System (VWR). Parasite viability was measured in triplicate using the CellTiter-Glo luminescence kit in an Envision plate reader. EC50 values were obtained using the GraphPad Prism 9 Software.

[4] = system: T. cruzi (infecting C2C12); experiment: T. cruzi intracellular amastigote assay in C2C12 cells (high content imaging); type: cell-based, Trypanosoma cruzi; conditions: for EC50: intracellular amastigotes, 72 h, read-out: EC50 T. cruzi (infecting C2C12)
Protocol: Mouse C2C12 myoblasts (ATCC CRL-1772) were cultivated in RPMI 1640 medium supplemented with 5% FBS and kept at 37 °C and 5% CO2. T. cruzi CAI-72 trypomastigotes were obtained from the supernatant of C2C12 cells infected four to seven days previously. For the assay, 500 C2C12 cells were mixed with 7500 T. cruzi parasites and seeded into 384-well plates at a 50 µL final volume. Test compounds and reference drugs (Benznidazole and K11777) were pre-spotted into the 384 well black bottom plates prior to the addition of cells and parasites with final assay concentration of 20 µM to 0.02 µM. The plates were incubated at 37 °C^, 5% CO2 for 72 h. Cultures were then fixed with 4% formaldehyde and 0.5 µg/mL DAPI (diamidino-2-phenylindole) was added for staining nucleic acids. Plates were kept protected from light for 1 h and then imaged in an ImageXpress Micro XLS automated high content imager (Molecular Devices, San Jose, CA, USA). Imaging and data analysis were performed as described for L. donovani amastigotes on biological triplicates.

[5] = system: S. mansoni, adult worm; experiment: S. mansoni adult worm ex vivo phenotypic screen (severity score); type: cell-based, Schistosoma mansoni; conditions: for S. mansoni, adult worm: least concentration at which a severity score of 4 was recorded: after 24 h, tested at 10, 5, 2.5 and 1.25 µM, EC50; for severity score, adult S. mansoni: maximum of 4
Description: The Naval Medical Research Institute (NMRI) isolate of S. mansoni was used. The parasite was cycled between Biomphalaria glabrata snails and male Golden Syrian hamsters (infected at 4–6 weeks of age) as intermediate and definitive hosts, respectively. Hamsters were infected and maintained in accordance with protocols approved by the Institutional Animal Care and Use Committee (IACUC) at the University of California San Diego. The acquisition, preparation and in vitro maintenance of S. mansoni have been described. Briefly, adult worms were harvested from hamsters 42 days post-infection in RPMI or DMEM, and washed five times prior to maintenance overnight at 37 °C and 5% CO2 in Basch medium containing 4% heat-inactivated FBS, 100 µg/mL streptomycin and 100 U/mL penicillin.
Ex vivo screens with adults employed 24-well flat-bottomed plates and approximately 5 males and 2–3 females/well. The complex and often dynamic phenotypic responses that the schistosome parasite is capable of were observed using a Zeiss Axiovert A1 inverted microscope at 24 h. Observations were classified using a constrained nomenclature that involves simple “descriptors” to convey changes in shape, motility and appearance, and the inability of the male worm to adhere to the bottom of the well, compared to DMSO controls. Each descriptor was given a value of 1 and these were added up to yield a “severity score” with a maximum of 4. Evidence of degeneracy or death was awarded a value of 4 as was damage to the tegument (parasite’s surface) on the understanding this would compromise survival in vivo. […] Data were averaged across two experiments for each compound concentration tested.

[6] = at all concentrations (10, 5, 2.5 and 1.25 µM), 24 h

EC50 ([3]; Giardia duodenalis)	EC50 ([4]; Trypanosoma cruzi, C2C12, 72 h)	Structure (SMILES)	CC50 [1]	CC50 [2]	EC50 [3]	EC50 [4]	S. mansoni, adult worm: least concentration at which a severity score of 4 was recorded [5]	severity score, adult S. mansoni [5, 6]	severity score, adult S. mansoni ([5]; 10 µM, 24 h)	T. cruzi intracellular parasites eliminated ([4]; 5 µM)	response of adult S. mansoni ([5]; 5 µM, 24 h)
		COc1ccc(NC(=O)CCC(=O)[O][Sn]([c]2ccccc2)([c]2ccccc2)[c]2ccccc2)cc1 [MS26Ph3]	360 nM	290 nM	5300 nM	> 20000 nM	1.25 µM	4			
		C=[CH][Sn]([CH]=C)([O]C(=O)CCC(=O)Nc1ccc(OC)cc1)[O]C(=O)CCC(=O)Nc1ccc(OC)cc1 [MS26vin2]	> 4000 nM	> 20000 nM	> 10000 nM	> 20000 nM	>10.0 µM		zero		
		CCC[CH2][Sn]([Cl])([Cl])[O]C(=O)CCC(=O)Nc1ccc(OC)cc1 [MS26BuSnCl2]	> 4000 nM	620 nM	> 10000 nM	> 20000 nM	>10.0 µM		zero		
		COc1ccc(NC(=O)CCC(=O)[O-])cc1.[Na+] [MS26Na, sodium 4-(4-methoxyphenylamino)-4 oxobutanoate]	> 4000 nM	4550 nM	> 10000 nM	4270 nM	>10.0 µM		zero		
		CCC[CH2][Sn]([CH2]CCC)([CH2]CCC)[O]C(=O)CCC(=O)Nc1ccc(OC)cc1 [MS26Bu3]	140 nM	170 nM	1030 nM	110 nM	1.25 µM	4			
> 10000 nM	3210 nM	COc1ccc(NC(=O)CCC(=O)O)cc1 [MS26, 4-(4-methoxyphenylamino)-4 oxobutanoic acid]					>10.0 µM		zero		
		CCC[CH2][Sn]([CH2]CCC)([O]C(=O)CCC(=O)Nc1ccc(OC)cc1)[O]C(=O)CCC(=O)Nc1ccc(OC)cc1 [MS26Bu2]	370 nM	1060 nM	> 10000 nM	530 nM	1.25 µM	4			
		COc1ccc(NC(=O)CCC(=O)[O][Sn]([CH]2CCCCC2)([CH]2CCCCC2)[CH]2CCCCC2)cc1 [MS26Cy3]	110 nM	110 nM	> 10000 nM	300 nM	1.25 µM	4			
		C[CH2][Sn]([CH2]C)([CH2]C)[O]C(=O)CCC(=O)Nc1ccc(OC)cc1 [MS26Et3]			8000 nM	240 nM		4		> 95%	
		COc1ccc(NC(=O)CCC(=O)[O][Sn]([CH3])([CH3])[CH3])cc1 [MS26Me3]	1240 nM	4870 nM	> 10000 nM	> 20000 nM	10 µM		lethal		the same response as MS26Oct2 at 10 µM
